Assay results published in patent publication US8318898B2, “Synthetic peptides for use as inhibitors of neurotransmitter secretion and as inducers of cellular relaxation” (Universite de Lausanne, priority 2005, dated 2012).
pKi: −log10 of the molar value. Like-named read-outs stand apart in the source and are kept apart here. Ends that are not written are not given here. * marks the point of attachment. Decanoyl = CCCCCCCCCC(=O)*; CH2Cl = ClC*

Experiments:
rat lung fibroblast (LF) = assay: Cell contraction/relaxation on wrinkling silicone substrate, live videomicroscopy; assay type: cell-based; conditions: 10 μM and 50 μM
Method: To study the effect(s) of the peptides on muscle cells, which associate with neurosecretory cells at neuromuscular junctions, peptides were cultured with rat lung fibroblast (LF) grown over wrinkling substrate (silicon) which can mimic the effects of contraction. These cells have a myofibroblastic phenotype, e.g., production of TGF-β, which make them suitable for cellular contraction/relaxation studies.
Wrinkling silicone substrates were prepared as essentially described previously (Harris, et al., Science. 208:177-179, 1980; Hinz, et al., Mol Biol Cell. 12:2730-41, 2001). Briefly, 50 μl of silicone (poly dimethyl siloxane; 30.000 centistokes, Dow Corning, Midland, Mich.) were deposited onto a 35 mm round glass coverslip at the bottom of a self-made observation chamber, which was centrifuged at 1.000 rpm for 2 minutes to spread the viscous fluid. The silicone surface was then crosslinked by passing it through a Bunsen flame; a flaming time of 1 second produced a surface stiffness that restricted wrinkle formation to fibroblasts with high contractile force (Hinz et al., supra). The polymerized silicone surface was finally coated with 10 μg/ml collagen type I (Sigma) for 2 hours at 37° C. Lung fibroblast cells were seeded at a density of 3.5×10^3 cells/cm^2 and cultured for 1-2 days before the experiment. […]

Recombinant furin [1] = biological target: T1, Recombinant furin (Homo sapiens, UniProt P09958); assay: biochemical; assay type: biochemical
T1 sequence (P09958 108-794): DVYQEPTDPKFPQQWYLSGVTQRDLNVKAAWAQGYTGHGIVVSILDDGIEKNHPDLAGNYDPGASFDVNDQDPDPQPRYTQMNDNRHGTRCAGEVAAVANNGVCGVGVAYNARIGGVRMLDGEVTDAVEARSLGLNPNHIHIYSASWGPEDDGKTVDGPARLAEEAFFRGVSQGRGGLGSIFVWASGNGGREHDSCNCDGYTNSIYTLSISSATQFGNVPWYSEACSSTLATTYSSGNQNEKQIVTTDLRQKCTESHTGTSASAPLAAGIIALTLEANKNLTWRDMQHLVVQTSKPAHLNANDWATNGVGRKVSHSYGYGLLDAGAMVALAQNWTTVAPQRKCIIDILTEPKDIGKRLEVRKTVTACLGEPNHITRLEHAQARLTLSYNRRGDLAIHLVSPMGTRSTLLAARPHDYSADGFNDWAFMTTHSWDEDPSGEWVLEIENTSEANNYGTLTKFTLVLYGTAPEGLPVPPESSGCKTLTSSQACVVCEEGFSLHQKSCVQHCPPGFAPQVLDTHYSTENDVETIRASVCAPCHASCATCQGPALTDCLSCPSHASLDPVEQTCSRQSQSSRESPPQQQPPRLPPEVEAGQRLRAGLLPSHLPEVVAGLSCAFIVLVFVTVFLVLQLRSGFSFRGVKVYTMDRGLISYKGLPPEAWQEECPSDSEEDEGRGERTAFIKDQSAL
Method: To determine if the peptides described herein have an effect on the activity of PC enzymes which are involved in a condition or disorder such as fibrosis, the effect of the peptides on furin activity in vitro was measured as percent inhibition of cleavage of the furin substrate fluorogenic t-butyloxycarbonyl (Boc)-RVRR-7-amino-4-methylcoumarin (MCA).
All in vitro enzyme studies were performed at room temperature in a final volume of 50-100 μl in 96-well flat-bottom black plates. The buffer consisted of 100 mM HEPES, 1 mM CaCl2, 0.5% TritonX-100, and 1 mM 2-β-mercaptoethanol pH 7.5. Assays were performed using Boc-RVRR-MCA as fluorogenic substrate at 100 μM. Recombinant furin (0.8 U of activity) was incubated with Boc-RVRR-MCA in the presence or absence of varying concentrations of synthetic peptides D-9Rac/am (SEQ ID NO. 15), L-Bel1 (SEQ ID NO. 3), or L-9K (SEQ ID NO. 6). One unit of activity is defined as the amount of furin that can release 1 μmol of MCA from the fluorogenic Boc-RVRR-MCA per min at 30° C. The release of highly fluorescent 7-amino 4-methyl coumarin (MCA) from the Boc-RVRR-MCA was monitored by a spectrofluorometer instrument at excitation and emission wavelengths of 370 nm/460 nm. […]

PC-12 cells = assay: Actin cytoskeleton organization, phalloidin-TRITC staining; assay type: cell-based, rat; conditions: 2 to 10 μM, 30 minutes, labeled or unlabeled
Method: Slides with PC-12 cells were prepared as stated previously for localization studies. Briefly, cells were exposed to FITC-labeled or unlabeled peptides, at various concentrations, for 30 minutes, fixed and then permeabilized. Subsequently, F-actin was fluorescently labeled with phalloidin-Tetramethyl Rhodamine Iso-Thiocyanate (TRITC) (Sigma Aldrich) conjugate, diluted on saponin buffer (0.25 μg/ml), and nuclear staining with DAPI dihydrochloride (Sigma Aldrich) (0.02 μg/ml), at room temperature for maximum 30 minutes. Finally, slides were mounted and sealed, and stored at 4° C. protected from light. The effect of the peptides to actin polymerization was analyzed by confocal microscopy, as described before.

PC12 cells [2] = assay: Inhibition of [3H]norepinephrine neurosecretion by PC12 cells; assay type: cell-based, rat
Method: Using the neurosecretion assay described above, peptides fused to the TAT-PTD (L-TAT) were tested for inhibition of neurotransmitters and compared to use of L-TAT alone (SEQ ID NO: 3). In vitro screening for synthetic peptides capable of efficiently and selectively blocking neurotransmitter release in the PC12 cell line grown under defined conditions was performed.
PC12 cells were washed with DMEM-WM (Dulbecco's Modified Eagle Medium (GIBCO cat. no. 31968) completed with 25 units of penicillin and streptomycin each) and loaded for 1-2 h with [^3H] norepinephrine (NE; 0.5 μCi/ml) in DMEM-CM (DMEM-WM complemented with 6% horse serum and 6% fetal calf serum). Cells were washed for 1 h with DMEM-WM, and then washed 2 times at 5-minute intervals. Basal release was determined by a 15-minutes incubation with CaSB-glucose 5 mM K^+ (CaSB-glucose: 140 mM NaCl, 5 mM KCl, 2 mM CaCl2, 11 mM glucose, [pH 7.4]). The peptides were added to the cells at defined concentrations after loading with NE but before induction of secretion. Cells were depolarized with 85 mM K^+ (CaSB-glucose with Na^+ reduced accordingly) for 15 minutes to determine stimulated release. Superfusate (1 ml) was removed to tubes. Adherent cells were solubilized in CaSB-glucose-0.1% Triton (1 ml/well). The quantities of released and non-released radiolabeled neurotransmitter were determined by liquid scintillation counting of cleared superfusates and cell lysates, respectively. Total uptake was calculated by addition of released and retained radioactivity, and the percentage release was as calculated (released counts/total uptake counts)×100. Results were also expressed as percent inhibition of neurosecretion.

PC12-ES cells [3] = assay: [3H]NE evoked secretion by PC12-ES cells with secretagogues; assay type: cell-based, rat; conditions: potassium 80 mM, nicotine 0.1 mM or carbachol 1 mM, 15 minutes
Excerpt: Neurotransmitter Secretion by PC12-ES. PC12 cells offer a number of advantages for studies of regulated secretion. Exocytosis of large dense-core vesicles (LDCVs) in these cells can be easily assayed for the release of radioactive norepinephrine ([^3H]NE) from pre-labeled cells [Greene et al., Brain Res, 129:247-63, 1977; Greene et al., J Neurochem, 30:579-86, 1978; Greene et al., J. Neurochem. 30:549-55, 1978; Greene et al., Brain Res. 138:521-8; 1977; Greene et al., Nature 268:349-51, 1977]. The neurosecretion assay was carried out by measuring [^3H]NE evoked secretion with PC12-ES cells.
PC12-ES cells were either untreated, treated with STSP (100 nM), or treated with NGF (50 ng/ml) for 48 h before the loading with [^3H]NE and prepared for release measurements. […] Media were collected, and released [^3H]NE as well as the total cell content were determined by liquid scintillation counting. Basal secretion was measured in calcium secretion buffer (CaSB) without secretagogue or CaSB supplemented with 11 mM glucose (CaSB-Glucose). The data are expressed in Table 1 as the percent secretion: [amount released/(amount released+amount in cell lysate)]×100. Net secretion is secretagogue-stimulated release minus basal release.

furin = biological target: T2, furin (Rattus norvegicus, UniProt P23377); assay type: biochemical
T2 construct: Furin activity was constitutively detected in PC12-ES cells; endogenous in cells; host or cells: PC12-ES cells (lysate)
T2 sequence (P23377 108-793): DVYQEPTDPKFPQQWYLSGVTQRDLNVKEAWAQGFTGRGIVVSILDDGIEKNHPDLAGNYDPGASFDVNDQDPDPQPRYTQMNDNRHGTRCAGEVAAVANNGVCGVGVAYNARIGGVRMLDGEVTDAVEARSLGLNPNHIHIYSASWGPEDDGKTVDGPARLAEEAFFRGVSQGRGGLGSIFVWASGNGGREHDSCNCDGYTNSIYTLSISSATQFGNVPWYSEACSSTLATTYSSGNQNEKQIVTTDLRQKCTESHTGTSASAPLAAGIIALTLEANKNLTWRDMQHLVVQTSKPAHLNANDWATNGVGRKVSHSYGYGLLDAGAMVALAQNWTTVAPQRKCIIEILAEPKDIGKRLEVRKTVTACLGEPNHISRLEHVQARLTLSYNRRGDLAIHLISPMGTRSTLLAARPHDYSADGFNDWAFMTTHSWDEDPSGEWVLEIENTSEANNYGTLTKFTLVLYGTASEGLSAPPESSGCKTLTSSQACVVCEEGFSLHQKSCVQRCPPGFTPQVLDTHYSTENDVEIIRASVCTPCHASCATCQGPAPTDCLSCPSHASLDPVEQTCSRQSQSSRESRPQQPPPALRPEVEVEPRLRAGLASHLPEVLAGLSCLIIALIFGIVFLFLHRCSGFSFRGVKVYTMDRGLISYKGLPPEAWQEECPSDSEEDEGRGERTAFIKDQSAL
Method: To monitor the intracellular furin activity, 80% confluent PC12-ES cells were washed twice with ice-cold phosphate-buffered saline (PBS1×) by centrifugation at 800×g for 5 minutes at 4° C., resuspended in 100 mM HEPES, 1 mM CaCl2, 0.5% TritonX-100, and 1 mM 2-β-mercaptoethanol, pH 7.5, sonicated 6 times at 4° C. for 10 seconds, and then centrifuged at 8000×g for 20 minutes at 4° C. The protein concentration in the samples was determined using a bicinchonic acid protein assay kit (Pierce Chemical Co.).
Intracellular furin activity was measured with a furin-specific fluorogenic substrate, t-butyloxycarbonyl (Boc)-[…]-7-amino-4-methylcoumarin (MCA). Briefly, the cell lysate (20 μg-60 μg of protein) prepared as described above was incubated with 100 μM Boc-RVRR-MCA in a 96-well flat-bottom black plate for at least 6 hours at room temperature and fluorescence measured by excitation at 365 nm and emission at 450 nm.

[4] = 10% concentration in oil/water emulsion, 30-day treatment; cited from earlier work
Recombinant furin [5] = biological target: T1, Recombinant furin; conditions: CALBIOCHEM; cited from earlier work
PC12-ES cells [6] = assay: Evoked neurotransmitter secretion by undifferentiated PC12-ES cells, furin inhibitor and arginine rich peptides; assay type: cell-based, rat; conditions: for inhibition of evoked neurotransmitter secretion by PC12-ES cells: potassium 80 mM, 15 minutes
PC12 cells [7] = assay type: cell-based, rat
Method: […]. Very little toxicity was present at 24 hours, and cytotoxicity at 48 hours was only slightly greater than at 24 hours. Cytotoxicity generally dipped to approximately 90% live cells when peptides were administered at 500 μM.

[8] = cited from earlier work
[9] = Boc-RVRR-MCA 100 μM as substrate
[10] = EDTA 50 mM, EGTA 50 mM, Dec-RVKR-CMK 50 μM

Q: Which “relaxing effect on lung myofibroblasts on silicon substrate” value (rat lung fibroblast (LF)) does the source give for “9K-L: SEQ ID NO: 6 (GYGKKKKKKKKKG; Synthetic peptide 9K-L)” here?
A: Its value is “not observed”.

Q: And the “concentration for complete blockade of cleavage of Boc-RVRR-MCA by furin” value (Recombinant furin [1])?
A: Its value is over 3.5 µM.

Q: What about the “effect on actin content and organization” value (PC-12 cells) of the same compound?
A: Its value is “No effect”.

Q: And the “inhibition of neurotransmitter-evoked secretion” value (PC12 cells [2]; concentration not given, peptide alone)?
A: The value was “approximately 20%”.

Q: With `C[N+](C)(C)CCOC(N)=O` [Carbachol] as the compound, how does the “percent secretion of [3H]NE” value (PC12-ES cells [3]; CaSB-Glucose, NGF differentiated cells) read?
A: Its value is 32.4%.

Q: And the “percent secretion of [3H]NE” value (PC12-ES cells [3]; CaSB-Glucose, STSP differentiated cells)?
A: The value was 57%.

Q: What about the “percent secretion of [3H]NE” value (PC12-ES cells [3]; CaSB-Glucose, non-differentiated cells) of the same compound?
A: The value was 37.24%.

Q: What about the “percent secretion of [3H]NE” value (PC12-ES cells [3]; CaSB, NGF differentiated cells) of the same compound?
A: The value was 27%.

Q: And the “percent secretion of [3H]NE” value (PC12-ES cells [3]; CaSB, STSP differentiated cells)?
A: Its value is 46.5%.

Q: And the “percent secretion of [3H]NE” value (PC12-ES cells [3]; CaSB, non-differentiated cells)?
A: Its value is 44.7%.

Q: Which “inhibition of in vitro furin activity (in words)” value (Recombinant furin [1]) does the source give for `O=C(O)CN(CCN(CC(=O)O)CC(=O)O)CC(=O)O` [EDTA, reference compound] here?
A: The value was “effectively suppressed”.

Q: What about the “inhibition of intracellular furin activity (in words)” value (furin) of the same compound?
A: Its value is “inhibited”.

Q: What does the source list for `O=C(O)CN(CCOCCOCCN(CC(=O)O)CC(=O)O)CC(=O)O` [EGTA, reference compound]?
A: inhibition of in vitro furin activity (in words) (Recombinant furin [1]; [9]): effectively suppressed; inhibition of intracellular furin activity (in words) (furin; [10]): inhibited

Q: For “Ac-Glu-Glu-Met-Gln-Arg-Arg-NH2 (Ac-EEMQRR-NH2) [L-Argireline]”, which inhibition of secretion (PC12 cells [2]; 50 μM (mixture: 50 μM each)) is on record?
A: The inhibition of secretion was “no inhibition”.

Q: What about the reduced wrinkle depth [4] of the same compound?
A: The reduced wrinkle depth was “up to 30%”.

Q: For “Decanoyl-Arg-Val-Lys-Arg-CMK (Decanoyl-RVKR-CH2Cl) [FI-I, reference compound]”, which “inhibition of in vitro furin activity (in words)” value (Recombinant furin [1]; [9]) is on record?
A: Its value is “inhibited”.

Q: What about the “inhibition of intracellular furin activity (in words)” value (furin; [10]) of the same compound?
A: The value was “inhibited”.

Q: What about the pKi (Recombinant furin [5]) of the same compound?
A: The pKi was 9.00.

Q: And the “dose dependence of inhibition of evoked secretion” value (PC12-ES cells [6])?
A: The value was “dose dependent”.

Q: What about the “inhibition of evoked neurotransmitter secretion by PC12-ES cells” value (PC12-ES cells [6]; 10 μM) of the same compound?
A: The value was 12.6%.

Q: And the “inhibition of evoked neurotransmitter secretion by PC12-ES cells” value (PC12-ES cells [6]; 100 μM)?
A: The value was 50%.

Q: What about the “cytotoxicity (MTT)” value (PC12 cells [7]) of the same compound?
A: Its value is “no marked cytotoxicity”.

Q: With “Pal-Lys-Thr-Thr-Lys-Ser (Pal-KTTKS) [palmitoyl pentapeptide]” as the compound, how does the “improving the effects of photo-aging” value ([8]; 3 ppm versus retinol 700 ppm) read?
A: Its value is “as effective as retinol”.

Q: And the side effects ([8]; in vivo)?
A: The side effects was “not associated with any side effects”.
